According to the supplement of paper PMC10307832:

Experiments:
Experiment in all cases: relative viability (nuclei count vs DMSO), 5 days (fraction); higher = more cells survive
Vismodegib + Linsitinib = compound: CS(=O)(=O)c1ccc(C(=O)Nc2ccc(Cl)c(-c3ccccn3)c2)c(Cl)c1 [Vismodegib] + C[C@]1(O)C[C@@H](c2nc(-c3ccc4ccc(-c5ccccc5)nc4c3)c3c(N)nccn32)C1 [Linsitinib] (partner 1 µM)
Outline: (§1)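 Nuclei were stained with Hoechst during a one-step fixation (final 0.05% Triton X-100, 1% formaldehyde, 1 ug/ml Hoechst) carried out 5 days after dosing, then counted on 4× images. The cells, lung cancer lines in 1536-well plates, had been dosed by pin tool the day after seeding with one drug alone or a fixed anchor-drug dose plus five library-drug doses (not always all listed) in √10 steps. Relative viability is the nuclei count in treated wells divided by that in vehicle wells, and each value is the median of duplicate plates.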

Ruxolitinib + Luminespib = compound: N#CC[C@H](C1CCCC1)n1cc(-c2ncnc3[nH]ccc23)cn1 [Ruxolitinib] + CCNC(=O)c1noc(-c2cc(C(C)C)c(O)cc2O)c1-c1ccc(CN2CCOCC2)cc1 [Luminespib] (partner 0.01 µM)
Outline: as §1

Ruxolitinib + Pemetrexed = compound: N#CC[C@H](C1CCCC1)n1cc(-c2ncnc3[nH]ccc23)cn1 [Ruxolitinib] + Nc1nc2[nH]cc(CCc3ccc(C(=O)N[C@@H](CCC(=O)O)C(=O)O)cc3)c2c(=O)[nH]1 [Pemetrexed] (partner 0.2 µM)
Outline: as §1

Ruxolitinib + OSI-027 = compound: N#CC[C@H](C1CCCC1)n1cc(-c2ncnc3[nH]ccc23)cn1 [Ruxolitinib] + COc1cccc2cc(-c3nc([C@H]4CC[C@H](C(=O)O)CC4)n4ncnc(N)c34)[nH]c12 [OSI-027] (partner 0.5 µM)
Outline: as §1

Cell Line	relative viability (Vismodegib + Linsitinib; first compound 0.08 µM)	relative viability (Vismodegib + Linsitinib; first compound 0.253 µM)	relative viability (Vismodegib + Linsitinib; first compound 0.8 µM)	relative viability (Vismodegib + Linsitinib; first compound 2.53 µM)	relative viability (Vismodegib + Linsitinib; first compound 8 µM)	relative viability (Ruxolitinib + Luminespib; first compound 0.08 µM)	relative viability (Ruxolitinib + Luminespib; first compound 0.253 µM)	relative viability (Ruxolitinib + Luminespib; first compound 0.8 µM)	relative viability (Ruxolitinib + Luminespib; first compound 2.53 µM)	relative viability (Ruxolitinib + Luminespib; first compound 8 µM)	relative viability (Ruxolitinib + Pemetrexed; first compound 0.08 µM)	relative viability (Ruxolitinib + Pemetrexed; first compound 0.253 µM)	relative viability (Ruxolitinib + Pemetrexed; first compound 0.8 µM)	relative viability (Ruxolitinib + Pemetrexed; first compound 2.53 µM)	relative viability (Ruxolitinib + Pemetrexed; first compound 8 µM)	relative viability (Ruxolitinib + OSI-027; first compound 0.08 µM)	relative viability (Ruxolitinib + OSI-027; first compound 0.253 µM)	relative viability (Ruxolitinib + OSI-027; first compound 0.8 µM)	relative viability (Ruxolitinib + OSI-027; first compound 2.53 µM)	relative viability (Ruxolitinib + OSI-027; first compound 8 µM)
201T	0.954	1.09	1	0.978	1.01	1.1	1.22	1.24	1.17	1.18	0.336	0.338	0.389	0.325	0.299	0.768	0.722	0.809	0.919	0.905
A549	0.537	0.566	0.448	0.526	0.615	–	–	–	–	–	–	–	–	–	–	–	–	–	–	–
A-427	1.12	1.09	1.11	1.11	1.12	–	0.969	1	0.715	0.813	1	0.927	0.967	1.04	0.893	0.434	0.465	0.566	0.364	0.439
ABC-1	0.666	0.682	0.79	0.821	0.794	–	0.736	0.987	0.509	0.437	–	–	–	–	–	–	0.379	0.83	0.455	0.539
BEN	0.951	0.939	0.929	0.964	0.99	0.339	0.64	0.519	0.377	0.33	0.534	0.744	0.818	0.688	0.95	0.336	0.299	0.304	0.266	0.267
CAL-12T	0.927	0.765	0.95	0.722	0.679	0.364	0.771	0.448	0.305	0.335	1.15	1.18	1.22	0.993	0.802	0.598	0.623	0.812	0.524	0.442
COR-L23	0.934	0.812	0.972	0.859	1.1	0.749	0.738	0.676	0.511	0.519	0.203	0.191	0.201	0.195	0.191	0.806	0.743	0.868	0.729	0.645
COR-L 105	0.781	0.978	0.965	1.01	0.849	0.707	0.93	0.789	0.538	0.511	–	1	0.926	0.874	0.919	0.535	0.536	0.705	0.667	0.531
Calu-6	1	0.9	0.952	0.904	1.02	–	–	–	–	–	–	–	–	–	–	–	–	–	–	–
ChaGo-K-1	–	–	–	–	–	0.635	0.655	0.605	0.492	0.517	0.255	0.263	0.26	0.256	0.246	0.698	0.436	0.544	0.524	0.545
EBC-1	0.871	0.901	0.981	0.778	0.883	–	–	–	–	–	–	–	–	–	–	–	–	–	–	–
EKVX	0.949	1.04	0.929	0.894	0.989	0.85	0.877	0.975	0.816	0.804	–	0.403	0.41	0.402	0.237	0.661	0.641	0.486	0.632	0.733
EMC-BAC-2	0.785	0.803	0.914	0.776	0.82	1.09	1.16	1.15	1.04	0.947	0.454	0.419	0.431	0.439	0.368	0.391	0.344	0.358	0.359	0.224
EPLC-272H	1.24	1.18	0.986	1.04	1.1	0.632	0.224	0.241	0.295	0.174	0.357	0.372	0.377	0.313	0.218	0.275	0.282	0.291	0.267	0.272
H3255	0.967	0.88	1	0.959	0.897	0.85	0.881	1.07	0.841	0.865	0.506	0.553	0.569	0.528	0.473	0.371	0.492	0.624	0.591	0.585
HARA	0.844	0.944	0.76	0.967	1.04	0.9	0.83	0.897	0.839	0.342	0.206	0.27	0.225	0.221	0.229	0.727	0.372	0.601	0.416	0.481
HCC-15	0.896	0.876	0.834	1.01	0.897	0.345	0.216	0.555	0.302	0.203	0.223	0.227	0.212	0.194	0.203	0.569	0.494	0.751	0.522	0.541
HCC-44	0.668	0.581	0.66	0.715	0.71	1.02	1.07	1.2	0.689	0.527	0.632	0.694	0.646	0.571	0.641	0.537	0.426	0.634	0.457	0.333
HCC-78	0.474	0.477	0.406	0.588	0.488	–	–	–	–	–	0.919	0.952	0.857	0.892	0.955	0.36	0.337	0.33	0.383	0.365
